Values belong to the molecule of their own block, whether it stands above or below them.
Key:
[1] = target: T1, EPAC1-CNBD (Homo sapiens, UniProt O95398); test: 8-NBD-cAMP competition binding assay, EPAC1-CNBD; settings: for IC50 values as EPAC1 binders (in words): summary statement; for EPAC1 binding potency / affinity in words: SAR comment on RFI, mostly relative to 3 or 9a
T1 sequence (O95398 169-318 isoform O95398-3): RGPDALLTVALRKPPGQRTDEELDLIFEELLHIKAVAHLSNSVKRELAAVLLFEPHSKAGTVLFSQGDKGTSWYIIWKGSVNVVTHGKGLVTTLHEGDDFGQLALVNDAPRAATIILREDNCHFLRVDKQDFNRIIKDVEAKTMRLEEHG

[2] = target: T2, EPAC1 (Homo sapiens, UniProt O95398); test: In vitro GEF screen (EPAC1 activation assay); assay type: biochemical; design: expressed in transfected cells; host or cells: U2OS cells (from Professor Holger Rehmann, University of Utrecht); settings: 10 µM, FIG. 6
T2 sequence (O95398 1-923): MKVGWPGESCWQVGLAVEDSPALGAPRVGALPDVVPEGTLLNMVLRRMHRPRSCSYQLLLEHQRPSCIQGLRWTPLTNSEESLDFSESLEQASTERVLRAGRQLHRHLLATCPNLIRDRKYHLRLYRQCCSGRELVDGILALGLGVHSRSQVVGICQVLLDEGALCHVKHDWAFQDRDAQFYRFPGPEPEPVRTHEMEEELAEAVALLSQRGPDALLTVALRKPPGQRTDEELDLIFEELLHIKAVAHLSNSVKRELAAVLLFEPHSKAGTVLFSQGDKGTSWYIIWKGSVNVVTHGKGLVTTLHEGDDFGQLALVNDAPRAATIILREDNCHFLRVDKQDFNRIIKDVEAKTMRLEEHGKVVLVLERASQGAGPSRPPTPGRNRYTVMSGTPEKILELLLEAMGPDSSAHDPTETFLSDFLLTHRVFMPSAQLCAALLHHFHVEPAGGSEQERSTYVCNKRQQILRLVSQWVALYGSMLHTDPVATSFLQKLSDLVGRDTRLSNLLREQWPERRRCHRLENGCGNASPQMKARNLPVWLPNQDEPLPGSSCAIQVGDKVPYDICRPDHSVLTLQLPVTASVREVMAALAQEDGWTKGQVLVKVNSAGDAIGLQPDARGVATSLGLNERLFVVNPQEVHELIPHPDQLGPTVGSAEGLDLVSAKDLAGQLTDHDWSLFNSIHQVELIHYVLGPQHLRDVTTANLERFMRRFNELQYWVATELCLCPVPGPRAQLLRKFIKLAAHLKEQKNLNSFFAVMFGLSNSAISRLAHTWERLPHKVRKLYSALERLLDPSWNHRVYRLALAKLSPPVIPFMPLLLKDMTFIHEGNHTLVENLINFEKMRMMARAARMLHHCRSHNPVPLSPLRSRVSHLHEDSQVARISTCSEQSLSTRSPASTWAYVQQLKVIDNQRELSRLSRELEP
Experimental: FIGS. 6A-B. Identification of compounds including 25g (PW0381) 25q (PW0521) 25n (PW0577), 25u (PW0606), 25e (PW0624) and 25f (PW0625) as EPAC1 activators in an in vitro GEF screen. […] Selected compounds have been highlighted as indicated.
(§1) Series Expansion and EPAC1 vs EPAC2 Selectivity. GEF assay was used to further screen all newly synthesis analogues at 10 µM, to identify additional activating compounds to expand the series of EPAC1 agonists (FIG. 6). […] Having now identified an expanded exemplary series of compounds as potential EPAC1 activators the ability of 25e, 25f, 25g, 25n and 25u to activate EPAC1 and EPAC2 in cellular Rap1 activation assays (FIG. 7) were compared. For these U2OS cells transfected with either EPAC1 or EPAC2 (FIG. 7) was used. […] Densitometry was carried out on all immunoblots and the ratio of EPAC1 to EPAC2 activation was calculated and presented in a bar graph in FIG. 8.

[3] = target: T2, EPAC1; test: Active Rap1 pull-down in U2OS cells stably transfected with EPAC1; assay type: cell-based; design: expressed in transfected cells; host or cells: U2OS cells (from Professor Holger Rehmann, University of Utrecht); settings: for Rap1 activation in EPAC1 cells: U2OS-EPAC1, 100 µM compound, 10 min, FIG. 7; for selectivity: ability to activate EPAC1 over EPAC2 (ratio of EPAC1 to EPAC2 activation): densitometry of Rap1-GTP immunoblots, U2OS-EPAC1 vs U2OS-EPAC2, FIG. 8
Experimental: as §1
Active Rap1 Pull-down. U2OS cells (from Professor Holger Rehmann, University of Utrecht) stably transfected with EPAC1 or EPAC2 were cultured in 6-well plates in DMEM, high glucose, supplemented with 10% (v/v) FBS, 1% (v/v) GlutaMAX, 1% (v/v) Penicillin-Streptomycin and 2 mg/l puromycin (to ensure selection of stable transfectants). 80% confluent cells were starved in culture medium with reduced FBS concentration (0.5 %) for 16 h and then stimulated for 10 min with either vehicle, 100 µM of studied compounds, or 50 µM of 2 in case of U2OS-EPAC1 or 100 µM of compound 4 for U2OS-EPAC2. Cells were then rinsed with ice-cold PBS and lysed in 0.5 ml cell lysis buffer (Cell Signaling Technologies) supplemented with 10 mM MgCl2 and 1 mM PMSF, followed by clearing the lysates by centrifugation. Cell lysates were incubated for 1 h (4° C., gentle agitation) with 40 µg GST-RalGDS-RBD immobilized on Glutathione Sepharose 4B (GE Healthcare) to selectively capture GTP-bound Rap1. Later on, the glutathione resin was separated from supernatant by centrifugation, washed three times with cell lysis buffer, then resuspended in 2x SDS sample loading buffer and denatured for 5 min at 95° C.
(§2) SDS-PAGE and Western Blotting. Samples were prepared by mixing equal volumes of cell lysate and 2x SDS sample loading buffer and denaturing for 5 min at 95° C., unless indicated otherwise. Protein samples were separated by SDS-PAGE on 10% (v/v) polyacrylamide gels, for EPAC1 and VASP, or on 12.5% (v/v), for Rap1, and then transferred to nitrocellulose membranes. Membranes were then blocked for 1 h at room temperature in 5% (w/v) non-fat dry milk or 5% (w/v) BSA in Tris-buffered saline containing 0.1% (v/v) Tween 20, followed by an overnight incubation with primary antibody diluted in blocking buffer at 4° C. Subsequently, the membranes were incubated with appropriate horseradish peroxidase-conjugated secondary antibodies for 1 h at room temperature. For signal detection the SuperSignal West Pico PLUS Chemiluminescent Substrate (Thermo Scientific) was used. Images were acquired using the Fusion FX7 camera platform (Vilber). Densitometry was performed with ImageJ.

[4] = system: PKA; test: PKA activation (VASP phosphorylation, western blot) in U2OS-EPAC1 cells; assay type: cell-based; settings: 100 µM test compound, FIG. 5
Experimental: FIG. 5. PKA activation results of representative newly discovered EPAC1 agonists. U2OS cells stably transfected with EPAC1 were treated with 100 µM of test compounds, cyclic nucleotide EPAC1 agonist 2 or 10 µM of forskolin and rolipram (F/R), cyclic AMP elevating agents, as a positive control. Active, phosphorylated VASP (P-VASP) was visualized using a phospho-specific, anti-VASP antibody. None of the test compounds promoted VASP phosphorylation in cells.
PKA and GPCR Selectivity. To investigate the EPAC selectivity of these EPAC agonists, compounds 25g, 25n and 25q were selected for further PKA activation studies, and the results are shown in FIG. 5. PKA activation was assessed by monitoring phosphorylation state of a downstream PKA effector, vasodilator-stimulated phosphoprotein (VASP).
as §2

[5] = compound 10 µM, EPAC1-CNBD 0.8 µM, 8-NBD-cAMP 62.5 nM, mean ± SEM, lower RFI = stronger binding

RFI (%) (relative fluorescence intensity), Table 4 [1, 5]: 56 ± 6%
IC50 values as EPAC1 binders (in words) [1]: low micromolar to sub-micromolar
SMILES: Cc1cc(Nc2ncccc2C(F)(F)F)cc(S(=O)(=O)NC(=O)COc2ccc3ccccc3c2)c1 [Compound 25u, N-((3-Methyl-5-((3-(trifluoromethyl)pyridin-2-yl)amino)phenyl)sulfonyl)-2-(naphthalen-2-yloxy)acetamide]
EPAC1 activity in GEF assay [2]: promote EPAC1 activity more effectively than 25g, 25n and 25q
Rap1 activation in EPAC1 cells [3]: roughly equivalent to the positive control
PKA activation (VASP phosphorylation) [4]: unable to activate PKA

RFI (%) (relative fluorescence intensity), Table 4 [1, 5]: 81 ± 8%
IC50 values as EPAC1 binders (in words) [1]: low micromolar to sub-micromolar
selectivity: ability to activate EPAC1 over EPAC2 (ratio of EPAC1 to EPAC2 activation) [3]: best selectivity
SMILES: Nc1ccc(S(=O)(=O)NC(=O)COc2ccc3ccccc3c2)cc1F [Compound 25f, N-((4-Amino-3-fluorophenyl)sulfonyl)-2-(naphthalen-2-yloxy)acetamide]
EPAC1 activity in GEF assay [2]: promote EPAC1 activity more effectively than 25g, 25n and 25q
PKA activation (VASP phosphorylation) [4]: unable to activate PKA

IC50 values as EPAC1 binders (in words) [1]: low micromolar to sub-micromolar
selectivity: ability to activate EPAC1 over EPAC2 (ratio of EPAC1 to EPAC2 activation) [3]: best selectivity
SMILES: O=C(COc1ccc2ccccc2c1)NS(=O)(=O)c1ccc([N+](=O)[O-])c(F)c1 [Compound 25e, N-((3-Fluoro-4-nitrophenyl)sulfonyl)-2-(naphthalen-2-yloxy)acetamide]
EPAC1 activity in GEF assay [2]: promote EPAC1 activity more effectively than 25g, 25n and 25q
Rap1 activation in EPAC1 cells [3]: roughly equivalent to the positive control
PKA activation (VASP phosphorylation) [4]: unable to activate PKA

RFI (%) (relative fluorescence intensity), Table 1 [1, 5]: 102 ± 5%
SMILES: COc1cc2c(cc1OC)CN(CC(=O)NS(=O)(=O)c1c(C)cc(C)cc1C)CC2 [Compound 9k, 2-(6,7-Dimethoxy-3,4-dihydroisoquinolin-2(1H)-yl)-N-(mesitylsulfonyl)acetamide]

RFI (%) (relative fluorescence intensity), Table 1 [1, 5]: 102 ± 1%
SMILES: Cc1cc(C)c(S(=O)(=O)NC(=O)CN2CCc3ccccc3C2)c(C)c1 [Compound 9j, 2-(3,4-Dihydroisoquinolin-2(1H)-yl)-N-(mesitylsulfonyl)acetamide]

EPAC1 binding potency / affinity in words [1]: completely inhibit EPAC binding potency
RFI (%) (relative fluorescence intensity), Table 3 [1, 5]: 92 ± 2%
SMILES: Cc1cc(C)c(S(=O)(=O)NC(=O)CSc2ccc3ccccc3c2)c(C)c1 [Compound 12a, N-(Mesitylsulfonyl)-2-(naphthalen-2-ylthio)acetamide]

EPAC1 binding potency / affinity in words [1]: no significant improvement
RFI (%) (relative fluorescence intensity), Table 1 [1, 5]: 104 ± 7%
SMILES: CC(=O)c1c(OCC(=O)NS(=O)(=O)c2c(C)cc(C)cc2C)ccc2ccccc12 [Compound 9d, 2-((1-Acetylnaphthalen-2-yl)oxy)-N-(mesitylsulfonyl)acetamide]

EPAC1 binding potency / affinity in words [1]: no significant improvement
RFI (%) (relative fluorescence intensity), Table 1 [1, 5]: 92 ± 2%
SMILES: Cc1cc(C)c(S(=O)(=O)NC(=O)COc2ccc3cccnc3c2)c(C)c1 [Compound 9c, N-(Mesitylsulfonyl)-2-(quinolin-7-yloxy)acetamide]

RFI (%) (relative fluorescence intensity), Table 1 [1, 5]: 88 ± 9%
SMILES: Cc1cc(C)c(S(=O)(=O)NC(=O)CNc2cccc(Cl)c2)c(C)c1 [Compound 9h, 2-((3-Chlorophenyl)amino)-N-(mesitylsulfonyl)acetamide]

RFI (%) (relative fluorescence intensity), Table 2 [1, 5]: 66 ± 2%
SMILES: Cc1ccc(S(=O)(=O)NC(=O)COc2ccc3ccc(Cl)cc3c2)c(C)c1 [Compound 9p, 2-((7-Chloronaphthalen-2-yl)oxy)-N-((2,4-dimethylphenyl)sulfonyl)acetamide]

RFI (%) (relative fluorescence intensity), Table 4 [1, 5]: 54 ± 6%
SMILES: COc1ccc2ccc(OCC(=O)NS(=O)(=O)c3cc(Cl)cc(Cl)c3)cc2c1 [Compound 25l, N-((3,5-Dichlorophenyl)sulfonyl)-2-((7-methoxynaphthalen-2-yl)oxy)acetamide]

RFI (%) (relative fluorescence intensity), Table 4 [1, 5]: 35± 1%
SMILES: O=C(COc1ccc2ccccc2c1)NS(=O)(=O)c1cccc(-c2ccccc2)c1 [Compound 25ac, N-([1,1′-Biphenyl]-3-ylsulfonyl)-2-(naphthalene-2yloxy)acetamide]

RFI (%) (relative fluorescence intensity), Table 2 [1, 5]: 55 ± 1%
SMILES: Cc1ccc(S(=O)(=O)NC(=O)COc2ccc3cc(F)ccc3c2)c(C)c1 [Compound 9o, 2-((6-Fluoronaphthalen-2-yl)oxy)-N-((2,4-dimethylphenyl)sulfonyl)acetamide]

RFI (%) (relative fluorescence intensity), Table 4 [1, 5]: 49 ± 2%
SMILES: O=C(COc1ccc2ccccc2c1)NS(=O)(=O)c1ccccc1 [Compound 25y, 2-(Naphthalen-2-yloxy)-N-(phenylsulfonyl)acetamide]

EPAC1 binding potency / affinity in words [1]: slightly decreased binding potency
RFI (%) (relative fluorescence intensity), Table 1 [1, 5]: 77 ± 2%
SMILES: Cc1cc(C)c(S(=O)(=O)NC(=O)COc2ccc3c(c2)CCCC3)c(C)c1 [Compound 9f, N-(Mesitylsulfonyl)-2-((5,6,7,8-tetrahydronaphthalen-2-yl)oxy)acetamide]

Source: US20230150929A1, “SELECTIVE NON-CYCLIC NUCLEOTIDE ACTIVATORS FOR THE CAMP SENSOR EPAC1” (The Board of Regents of The University of Texas System, priority 2020, published 2023)
